The subject of assay [1] is CD94/NKG2A. The settings on record: cited from earlier work.
The next assay deals with CD56dimNKG2A+ NK cells. Format: cell-based, human.
A further assay concerns CD56dimNKG2A- NK cells. In kind it is cell-based, human.
A further assay concerns the target HLA-E*0103 (Homo sapiens, UniProt P13747). Format: binding.
The subject of assay [2] is CD94/NKG2A. Format: binding, human.
A further assay has as its system CD94/NKG2C. Format: binding, human.

Data on seven substances can be found in publication PMC12303380 (PLOS Pathogens, 2025).

Where “and” joins values, the source holds several entries; their conditions need not be identical. Equal values may be shown once.

Take VMPLSAPTL: the “recognition of HLA-E/peptide complex by CD94/NKG2A on NK cells” value in the assay with CD94/NKG2A [1] is “could not be interacted with CD94/NKG2A”.

Take NLVPMVATV [PP65]: in the assay on CD56dimNKG2A+ NK cells, the “CD107a+CD56dimCD16+NKG2A+NKG2C-CD57-NK cells” value is 4.88 and 4.5 and 3.34. In addition, the “Perforin+CD56dimCD16+NKG2A-NKG2C-CD57-NK cells” value with CD56dimNKG2A- NK cells was 97.2 and 72.64 and 80.98 and 81.41.

With VMAPRTLIL [HLA-Cw*03 leading seq], on HLA-E*0103, the FI was 2.38 and 2.67 and 2.55; the “FI (fluorescent index of HLA-E expression)” value is given as 2.55; the “HLA-E MFI” value was 26721 and 22777 and 24852. For the same substance, in the assay on CD94/NKG2A [2], the “CD94/NKG2A+HLA-E+” value was 46.76% and 47.67% and 24.83%; the “frequency of CD94/NKG2A+HLA-E+ cells” value is reported as 47.67%. The “CD94/NKG2C+HLA-E+” value with CD94/NKG2C was 1.12% and 2.94% and 8.23%.

As for EADPTGHSY/ NLVPMVATV [MAGE-1/HCMV PP65], on HLA-E*0103, the “HLA-E MFI” value was 8070 and 8138 and 7351.

For AISPRTLNA [AA9], the “recognition of HLA-E/peptide complex by NKG2A/CD94 on NK cells” value with CD94/NKG2A [1] is reported as “unable to be recognized by NKG2A/CD94”.

For the substance EADPTGHSY [MAGE-1], the “CD94/NKG2A+HLA-E+” value with CD94/NKG2A [2] was 0.02% and 0.28% and 0.56%. In addition, the “CD94/NKG2C+HLA-E+” value with CD94/NKG2C was 0.54% and 1.07% and 0.11%.

On to LQPRTFLL, for which the “recognition of HLA-E/peptide complex by CD94/NKG2A on NK cells” value in the assay with CD94/NKG2A [1] is “could recognize and interact”.
